# Patent publication US20250215016A1, “ISOXAZOLE-HETEROCYCLIC DERIVATIVE, PHARMACEUTICAL COMPOSITION AND USE” (SHANGHAI SIMR BIOTECHNOLOGY CO., LTD, priority 2022, published 2025)
# Legend:
# α5-GABAA receptor = α5-GABAA receptor (Homo sapiens (Human), UniProt P18507+P31644); assay: Whole-cell patch clamp electrophysiology, inverse regulation activity in α5β3γ2-HEK293 cells; format: cell-based; details: compound 100 nM; GABA 0.05-0.06 μM (about EC7-8); clamped at −60 mV; read-out: Inverse regulation efficiency to α5-GABAA receptor
# In short: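 HEK293 cells expressing α5β3γ2 recorded whole-cell at −60 mV holding potential, GABA 0.05-0.06 μM (about EC7-8) applied, then compound at 100 nM final with GABA. pH 7.4 extracellular, CsCl-based pipette solution. Inverse regulation efficiency = (Itreatment−Igaba)/(Igaba−Iprebaseline)×100%.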
# [1] = Thermodynamic solubility in simulated intestinal fluid (FaSSIF); format: physicochemical; details: 37° C., 1000 rpm
# Method: 50 mM of phosphate buffer, pH=7.4:0.39 g of NaH2PO4·2H2O, 1.4025 g of Na2HPO4 were weighed, placed into an Erlenmeyer flask, dissolved with the addition of 240 ml of water, homogenously mixed, adjusted to pH 7.4 with 10 M NaOH solution, transferred into a 250 ml volumetric flask and diluted with water to the scale.
# Simulated intestinal fluid FaSSIF: 54.76 mg of FaSSIF-V2 (Biorelevant, batch. V2FAS-0619-A, lot. V2FAS01) was weighed, and added to 15 ml of buffer, and after dissolution, the solution was made up to 30 ml and left to stand at room temperature for 1 hour for use.
# Waters e2695 HPLC high performance liquid chromatography, Mettler XSE105 analytical balance.
# Stock solution containing 10 mM of each test compound was formulated using DMSO, diluted into […] standard curve solution using diluent (ACN:PB buffer with a volume ratio of 50:50), and tested by HPLC to obtain a standard curve of concentration vs peak area of each test compound.
# Thermodynamic solubility in simulated intestinal fluid (TS in FaSSIF). About 0.3 mg of each sample (test compound) was weighed, added into 1.5 mL of FaSSIF solution, two samples in parallel, shaken at 1000 rpm and 37° C. for 4 hours, and filtered, 1 mL of primary filtrate was discarded, then 400 μL of subsequent filtrate was taken, and tested by using a high performance liquid chromatograph (UV).
# [2] = simulated intestinal fluid (FaSSIF), thermodynamic from solid
# Chain of α5-GABAA receptor (P31644 32-462): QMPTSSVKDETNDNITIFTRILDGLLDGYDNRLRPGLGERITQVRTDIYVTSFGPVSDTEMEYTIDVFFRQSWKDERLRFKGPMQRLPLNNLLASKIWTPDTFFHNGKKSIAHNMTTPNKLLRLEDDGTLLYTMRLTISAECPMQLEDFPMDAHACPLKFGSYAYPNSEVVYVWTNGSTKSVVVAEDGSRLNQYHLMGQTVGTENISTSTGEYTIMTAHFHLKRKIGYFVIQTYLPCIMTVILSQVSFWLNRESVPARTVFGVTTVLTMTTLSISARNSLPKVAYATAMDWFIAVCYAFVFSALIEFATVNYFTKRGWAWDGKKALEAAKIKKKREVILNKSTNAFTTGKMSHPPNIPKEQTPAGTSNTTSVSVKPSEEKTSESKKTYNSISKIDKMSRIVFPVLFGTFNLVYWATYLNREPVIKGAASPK
# Chain of α5-GABAA receptor (P28472 26-473 partner): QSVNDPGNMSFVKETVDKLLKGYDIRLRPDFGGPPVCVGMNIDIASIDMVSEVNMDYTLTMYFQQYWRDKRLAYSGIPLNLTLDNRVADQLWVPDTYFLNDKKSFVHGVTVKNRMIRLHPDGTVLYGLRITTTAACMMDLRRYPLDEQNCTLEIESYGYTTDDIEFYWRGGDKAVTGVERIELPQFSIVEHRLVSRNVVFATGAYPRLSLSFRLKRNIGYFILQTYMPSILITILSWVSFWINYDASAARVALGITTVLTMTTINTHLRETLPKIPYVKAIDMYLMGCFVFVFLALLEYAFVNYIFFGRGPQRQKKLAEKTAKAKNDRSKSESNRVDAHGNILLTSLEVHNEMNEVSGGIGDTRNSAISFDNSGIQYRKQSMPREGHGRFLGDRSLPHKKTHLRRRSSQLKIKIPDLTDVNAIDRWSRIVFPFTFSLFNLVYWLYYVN
# Chain of α5-GABAA receptor (P18507 other isoform, or with tags, fused parts or gaps): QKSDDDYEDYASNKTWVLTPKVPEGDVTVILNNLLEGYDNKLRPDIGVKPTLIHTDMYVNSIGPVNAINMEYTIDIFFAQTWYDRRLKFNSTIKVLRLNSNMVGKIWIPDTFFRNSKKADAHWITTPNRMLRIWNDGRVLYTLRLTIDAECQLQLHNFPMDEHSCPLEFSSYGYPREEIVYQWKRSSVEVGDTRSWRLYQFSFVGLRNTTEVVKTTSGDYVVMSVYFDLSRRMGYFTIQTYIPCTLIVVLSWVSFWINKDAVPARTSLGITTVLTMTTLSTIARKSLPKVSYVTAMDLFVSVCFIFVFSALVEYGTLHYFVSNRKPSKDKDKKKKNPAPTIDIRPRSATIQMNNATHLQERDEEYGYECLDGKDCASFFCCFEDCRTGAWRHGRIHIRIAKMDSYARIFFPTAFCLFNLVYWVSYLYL
Structure (SMILES),inhibition at 0.1 µM (α5-GABAA receptor) [%],"solubility thermodynamic at 4 h [1, 2] [µg/mL]","solubility thermodynamic at 4 h ([1]; simulated intestinal fluid FaSSIF, pH 7.4, thermodynamic from solid) [µg/mL]"
"Cc1onc(-c2ccc(F)cc2)c1COc1cnc(-c2nnc3n2CCOC3)cn1 [Compound 19, 3-(5-((3-(4-fluorophenyl)-5-methylisoxazol-4-yl)methoxy)pyrazin-2-yl)-5,6-dihydro-8H-[1,2,4]triazolo[3,4-c][1,4]oxazine]",54,15.2,
"Cc1onc(-c2ccc(F)cc2)c1COc1cnc(-c2nnc3n2CCCOC3)cn1 [Compound 24, 3-(5-((3-(4-fluorophenyl)-5-methylisoxazol-4-yl)methoxy)pyrazin-2-yl)-6,7-dihydro-5H,9H-[1,2,4]triazolo[3,4-c][1,4]oxazepane]",44,,18.3
"Cc1onc(-c2ccc(F)cc2)c1COc1ccc(-c2nnc3n2CCOC3)cn1 [Compound 17, 3-(6-((3-(4-fluorophenyl)-5-methylisoxazol-4-yl)methoxy)pyridin-3-yl)-5,6-dihydro-8H-[1,2,4]triazolo[3,4-c][1,4]oxazine]",49,33.1,
"Cc1onc(-c2ccc(F)cc2)c1COc1cnc(-c2nnc3n2CCC3)cn1 [Compound 23, 4-(((5-(6,7-dihydro-5H-pyrrolo[2,1-c][1,2,4]triazol-3-yl)pyrazin-2-yl)oxy)methyl)-3-(4-fluorophenyl)-5-methylisoxazole]",45,39.6,
"Cc1onc(-c2ccc(F)cc2)c1COc1ccc(N2CCn3ccnc3C2=O)nn1 [Compound 37, 7-(6-((3-(4-fluorophenyl)-5-methylisoxazol-4-yl)methoxy)pyridazin-3-yl)-6,7-dihydroimidazo[1,2-a]pyrazin-8(5H)-one]",54,60.2,
"Cc1onc(-c2ccc(F)cc2)c1COc1ccc(N2CCN3CCNC(=O)C3C2)nn1 (stereo not shown) [Compound 10, 8-(6-((3-(4-fluorophenyl)-5-methylisoxazol-4-yl)methoxy)pyridazin-3-yl) hexahydro-2H-pyrazino[1,2-a]pyrazin-1 (6H)-one]",66,19.4,
"Cc1onc(-c2ccc(F)cc2)c1COc1cnc(-c2nnc3n2CCOCC3)cn1 [Compound 33, 3-(5-((3-(4-fluorophenyl)-5-methylisoxazol-4-yl)methoxy)pyrazin-2-yl)-5,6,8,9-tetrahydro-[1,2,4]triazolo[4,3-d][1,4]oxazepane]",48,39.5,
"Cc1onc(-c2ccc(F)cc2)c1COc1ccc(-c2nnc3n2CCOC3)nn1 [Compound 18, 3-(6-((3-(4-fluorophenyl)-5-methylisoxazol-4-yl)methoxy)pyridazin-3-yl)-5,6-dihydro-8H-[1,2,4]triazolo[3,4-c][1,4]oxazine]",57,,

# The next lines start with the values.
inhibition at 0.1 µM (α5-GABAA receptor) [%],"solubility thermodynamic at 4 h [1, 2] [µg/mL]","solubility thermodynamic at 4 h ([1]; simulated intestinal fluid FaSSIF, pH 7.4, thermodynamic from solid) [µg/mL]",Structure (SMILES)
47,,,"Cc1onc(-c2ccc(F)cc2)c1COc1ccc(-c2cc3n(c(=O)n2)CCN3C)cn1 [Compound 41, 7-(6-((3-(4-fluorophenyl)-5-methylisoxazol-4-yl)methoxy)pyridin-3-yl)-1-methyl-2,3-dihydroimidazo[1,2-c]pyrimidin-5(1H)-one]"
56,,,Cc1onc(-c2ccc(F)cc2)c1COc1ccc(-c2cc3n(c(=O)n2)C[C@]24CO[C@H](CN32)C4)cn1 [Compound 38]
37,157,,"Cc1onc(-c2ccc(F)cc2)c1COc1ccc(-c2nnc3n2CCS(=O)(=O)C3)cn1 [Compound 7, 3-(6-((3-(4-fluorophenyl)-5-methylisoxazol-4-yl)methoxy)pyridin-3-yl)-5,6-dihydro-8H-[1,2,4]triazolo[3,4-c][1,4]thiazine 7,7-dioxide]"
